Experimental data from PubChem BioAssay AID1963965 (Molecular Pharmacology Branch, DTP, NCI, 2024).

Test system: 996289-038-R-J1-PDC spheroid viability
Test: Anticancer human tumor 996289-038-R-J1-PDC patient-derived colon adenocarcinoma cell line growth inhibition [PI3K]
Conditions: spheroids with HUVEC and MSC; for IC50: curve of first compound; for viability, T/C: stronger effect = lower value
Summary of the method: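 Combination activity was assessed by viability in multicellular tumor spheroids carrying HUVEC and MSC components. Agents were tested with PI3K inhibitors from a Cmax-based top dose (or 10 microM) downward in half-log increments.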

[1] = second compound 0.00316 µM, first compound 0.0316 µM
[2] = second compound 0.00316 µM, first compound 0.1 µM
[3] = second compound 0.00316 µM, first compound 0.316 µM
[4] = second compound 0.00316 µM, first compound 1 µM
[5] = second compound 0.00316 µM, first compound 3.16 µM
[6] = second compound 0.00316 µM, first compound 10 µM
[7] = second compound 0.01 µM, first compound 0.0316 µM
[8] = second compound 0.01 µM, first compound 0.1 µM
[9] = second compound 0.01 µM, first compound 0.316 µM
[10] = second compound 0.01 µM, first compound 1 µM
[11] = second compound 0.01 µM, first compound 3.16 µM
[12] = second compound 0.01 µM, first compound 10 µM
[13] = second compound 0.0316 µM, first compound 0.0316 µM
[14] = second compound 0.0316 µM, first compound 0.1 µM
[15] = second compound 0.0316 µM, first compound 0.316 µM
[16] = second compound 0.0316 µM, first compound 1 µM
[17] = second compound 0.0316 µM, first compound 3.16 µM
[18] = second compound 0.0316 µM, first compound 10 µM
[19] = second compound 0.1 µM, first compound 0.0316 µM
[20] = second compound 0.1 µM, first compound 0.1 µM
[21] = second compound 0.1 µM, first compound 0.316 µM
[22] = second compound 0.1 µM, first compound 1 µM
[23] = second compound 0.1 µM, first compound 3.16 µM
[24] = second compound 0.1 µM, first compound 10 µM
[25] = second compound 0.316 µM, first compound 0.0316 µM
[26] = second compound 0.316 µM, first compound 0.1 µM
[27] = second compound 0.316 µM, first compound 0.316 µM
[28] = second compound 0.316 µM, first compound 1 µM
[29] = second compound 0.316 µM, first compound 3.16 µM
[30] = second compound 0.316 µM, first compound 10 µM
[31] = second compound 1 µM, first compound 0.0316 µM
[32] = second compound 1 µM, first compound 0.1 µM
[33] = second compound 1 µM, first compound 0.316 µM
[34] = second compound 1 µM, first compound 1 µM
[35] = second compound 1 µM, first compound 3.16 µM
[36] = second compound 1 µM, first compound 10 µM
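Further: spheroids exposed to compounds for seven days before viability read.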
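Wherever viability, T/C is given: luminescence used as a proxy for viable cell amount; percent viability relative to DMSO vehicle control as 100%.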

## CC1(C)CCC(CN2CCN(c3ccc(C(=O)NS(=O)(=O)c4ccc(NCC5CCOCC5)c([N+](=O)[O-])c4)c(Oc4cnc5[nH]ccc5c4)c3)CC2)=C(c2ccc(Cl)cc2)C1 + COc1c(OCCCN2CCOCC2)ccc2c3n(c(=NC(=O)c4cnc(N)nc4)nc12)CCN3
Second compound 0.00316 µM
  IC50: 7.54 µM
Second compound 0.01 µM
  IC50: 7.76 µM
Second compound 0.0316 µM
  IC50: 5.77 µM
Second compound 0.1 µM
  IC50: 4.2 µM
Second compound 0.316 µM
  IC50: < 0.0316 µM
Second compound 1 µM
  IC50: < 0.0316 µM
[1]
  viability, T/C: 88.5%
[2]
  viability, T/C: 97.1%
[3]
  viability, T/C: 94.2%
[4]
  viability, T/C: 110%
[5]
  viability, T/C: 106%
[6]
  viability, T/C: 34%
[7]
  viability, T/C: 95.6%
[8]
  viability, T/C: 88.6%
[9]
  viability, T/C: 84.2%
[10]
  viability, T/C: 97.7%
[11]
  viability, T/C: 103%
[12]
  viability, T/C: 37.6%
[13]
  viability, T/C: 81.3%
[14]
  viability, T/C: 84.2%
[15]
  viability, T/C: 72.9%
[16]
  viability, T/C: 86.1%
[17]
  viability, T/C: 90.5%
[18]
  viability, T/C: 19.7%
[19]
  viability, T/C: 65%
[20]
  viability, T/C: 62.5%
[21]
  viability, T/C: 62.8%
[22]
  viability, T/C: 59.5%
[23]
  viability, T/C: 65.2%
[24]
  viability, T/C: 10.3%
[25]
  viability, T/C: 40.4%
[26]
  viability, T/C: 36.2%
[27]
  viability, T/C: 33.9%
[28]
  viability, T/C: 36.9%
[29]
  viability, T/C: 38.6%
[30]
  viability, T/C: 11.3%
[31]
  viability, T/C: 19.5%
[32]
  viability, T/C: 19.5%
[33]
  viability, T/C: 21.1%
[34]
  viability, T/C: 23.3%
[35]
  viability, T/C: 18.8%
[36]
  viability, T/C: 6.87%

## C[C@@H](NC(=O)c1ncnc(N)c1Cl)c1ncc(C(=O)Nc2cc(C(F)(F)F)c(Cl)cn2)s1 + COc1c(OCCCN2CCOCC2)ccc2c3n(c(=NC(=O)c4cnc(N)nc4)nc12)CCN3
Second compound 0.00316 µM
  IC50: > 10 µM
Second compound 0.01 µM
  IC50: > 10 µM
Second compound 0.0316 µM
  IC50: > 10 µM
Second compound 0.1 µM
  IC50: > 10 µM
Second compound 0.316 µM
  IC50: < 0.0316 µM
Second compound 1 µM
  IC50: < 0.0316 µM
[1]
  viability, T/C: 89.7%
[2]
  viability, T/C: 88%
[3]
  viability, T/C: 95.1%
[4]
  viability, T/C: 112%
[5]
  viability, T/C: 131%
[6]
  viability, T/C: 136%
[7]
  viability, T/C: 96.6%
[8]
  viability, T/C: 87%
[9]
  viability, T/C: 96.2%
[10]
  viability, T/C: 116%
[11]
  viability, T/C: 98%
[12]
  viability, T/C: 109%
[13]
  viability, T/C: 94.3%
[14]
  viability, T/C: 78.9%
[15]
  viability, T/C: 86.7%
[16]
  viability, T/C: 81.9%
[17]
  viability, T/C: 92.7%
[18]
  viability, T/C: 77.8%
[19]
  viability, T/C: 68.7%
[20]
  viability, T/C: 57.1%
[21]
  viability, T/C: 69.2%
[22]
  viability, T/C: 67.7%
[23]
  viability, T/C: 71.3%
[24]
  viability, T/C: 58.7%
[25]
  viability, T/C: 42%
[26]
  viability, T/C: 36.2%
[27]
  viability, T/C: 35.7%
[28]
  viability, T/C: 52.9%
[29]
  viability, T/C: 43.3%
[30]
  viability, T/C: 37.3%
[31]
  viability, T/C: 22.3%
[32]
  viability, T/C: 16.1%
[33]
  viability, T/C: 19.3%
[34]
  viability, T/C: 21.7%
[35]
  viability, T/C: 29%
[36]
  viability, T/C: 22.6%

## Cn1ncnc1[C@H]1c2n[nH]c(=O)c3cc(F)cc(c23)N[C@@H]1c1ccc(F)cc1 + COc1c(OCCCN2CCOCC2)ccc2c3n(c(=NC(=O)c4cnc(N)nc4)nc12)CCN3
Second compound 0.00316 µM
  IC50: > 0.1 µM
Second compound 0.01 µM
  IC50: > 0.1 µM
Second compound 0.0316 µM
  IC50: > 0.1 µM
Second compound 0.1 µM
  IC50: > 0.1 µM
Second compound 0.316 µM
  IC50: < 0.000316 µM
Second compound 1 µM
  IC50: < 0.000316 µM
Second compound 0.00316 µM, first compound 0.000316 µM
  viability, T/C: 110%
Second compound 0.00316 µM, first compound 0.001 µM
  viability, T/C: 106%
Second compound 0.00316 µM, first compound 0.00316 µM
  viability, T/C: 102%
Second compound 0.00316 µM, first compound 0.01 µM
  viability, T/C: 112%
[1]
  viability, T/C: 103%
[2]
  viability, T/C: 103%
Second compound 0.01 µM, first compound 0.000316 µM
  viability, T/C: 97.7%
Second compound 0.01 µM, first compound 0.001 µM
  viability, T/C: 92.6%
Second compound 0.01 µM, first compound 0.00316 µM
  viability, T/C: 95.3%
Second compound 0.01 µM, first compound 0.01 µM
  viability, T/C: 100%
[7]
  viability, T/C: 97.3%
[8]
  viability, T/C: 100%
Second compound 0.0316 µM, first compound 0.000316 µM
  viability, T/C: 87.8%
Second compound 0.0316 µM, first compound 0.001 µM
  viability, T/C: 91.3%
Second compound 0.0316 µM, first compound 0.00316 µM
  viability, T/C: 80.3%
Second compound 0.0316 µM, first compound 0.01 µM
  viability, T/C: 79.4%
[13]
  viability, T/C: 97.7%
[14]
  viability, T/C: 70.8%
Second compound 0.1 µM, first compound 0.000316 µM
  viability, T/C: 69.4%
Second compound 0.1 µM, first compound 0.001 µM
  viability, T/C: 68.4%
Second compound 0.1 µM, first compound 0.00316 µM
  viability, T/C: 67.4%
Second compound 0.1 µM, first compound 0.01 µM
  viability, T/C: 63.3%
[19]
  viability, T/C: 64.6%
[20]
  viability, T/C: 48.6%
Second compound 0.316 µM, first compound 0.000316 µM
  viability, T/C: 41.8%
Second compound 0.316 µM, first compound 0.001 µM
  viability, T/C: 39.1%
Second compound 0.316 µM, first compound 0.00316 µM
  viability, T/C: 46.8%
Second compound 0.316 µM, first compound 0.01 µM
  viability, T/C: 35.3%
[25]
  viability, T/C: 44.2%
[26]
  viability, T/C: 43.8%
Second compound 1 µM, first compound 0.000316 µM
  viability, T/C: 22.6%
Second compound 1 µM, first compound 0.001 µM
  viability, T/C: 22.6%
Second compound 1 µM, first compound 0.00316 µM
  viability, T/C: 23.1%
Second compound 1 µM, first compound 0.01 µM
  viability, T/C: 18.3%
[31]
  viability, T/C: 25.7%
[32]
  viability, T/C: 20.8%
